For data set [1], the target named is T1, Polyunsaturated fatty acid 5-lipoxygenase (Homo sapiens, UniProt P09917).
T1 sequence (P09917 whole entry): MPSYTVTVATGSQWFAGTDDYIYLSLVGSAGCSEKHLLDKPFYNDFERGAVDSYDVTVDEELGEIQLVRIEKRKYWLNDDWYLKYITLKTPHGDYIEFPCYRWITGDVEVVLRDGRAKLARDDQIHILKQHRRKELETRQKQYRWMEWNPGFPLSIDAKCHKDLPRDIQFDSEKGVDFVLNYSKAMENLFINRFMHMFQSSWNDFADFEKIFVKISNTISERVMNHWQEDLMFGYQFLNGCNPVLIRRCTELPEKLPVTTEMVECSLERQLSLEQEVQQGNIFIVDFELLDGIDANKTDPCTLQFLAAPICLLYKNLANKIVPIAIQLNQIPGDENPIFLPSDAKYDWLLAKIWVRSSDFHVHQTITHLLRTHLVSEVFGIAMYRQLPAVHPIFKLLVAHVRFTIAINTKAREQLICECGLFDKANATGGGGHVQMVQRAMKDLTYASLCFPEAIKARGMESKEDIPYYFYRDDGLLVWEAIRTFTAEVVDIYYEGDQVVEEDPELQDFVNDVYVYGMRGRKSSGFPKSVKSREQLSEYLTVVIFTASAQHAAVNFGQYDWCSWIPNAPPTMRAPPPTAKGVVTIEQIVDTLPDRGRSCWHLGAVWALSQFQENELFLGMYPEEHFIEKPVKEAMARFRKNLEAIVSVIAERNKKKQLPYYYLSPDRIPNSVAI
The experiment in a line: Inhibition of 5-lipoxygenase activity in human whole blood assay. Type of data set: tissue-based.

Data set [2] in a line: Metabolic clearance in human liver microsomes. Type of data set: ADME, Microsome. The settings on record: read-out: Clearance. (In general: Liver microsomes are a subcellular fraction often used to study metabolism.)
The nature of data set [3]: Metabolic clearance in rat liver microsomes. The conditions noted are these: read-out: Clearance. Format: ADME, Microsome.
Data set [4] is described as follows: Metabolic clearance in guinea pig liver microsomes. Format: ADME, Cavia porcellus, Microsome. The conditions noted are these: read-out: Clearance.
Data set [5] has as its system Cavia porcellus. The experiment in a line: Percent inhibition of calcium ionophore-induced LTB4 production in guinea pig after 3h of oral dose of 2 mg/kg.
A short description of data set [6]: Bioavailability in rat (dose 2 mg/kg p.o./i.v.). Type of data set: ADME, organism-based. The settings on record: in vivo, po.
The test system of data set [7] is Cavia porcellus. Nature of the data set: Percent inhibition of histamine-induced bronchoconstriction in guinea pig after 3h of oral dose of 2 mg/kg.
Data set [8] is described as follows: Maximum plasma concentration in rat upon oral/iv administration at 2 mg/kg. Format: ADME, organism-based. Set-up: dose 2 mg/kg.
A short description of data set [9]: Area under plasma concentration-time curve in rat upon oral/iv administration at 2 mg/kg. Format: ADME, organism-based. Details: dose 2 mg/kg. The conditions noted are these: in vivo.
Data set [10] can be described thus: Plasma concentration of compound in guinea pig after 3h of oral dose of 2 mg/kg. Type of data set: ADME, organism-based, Cavia porcellus. Set-up: dose 2 mg/kg, route oral.
The mark [11] stands for this setting: read-out: Concentration, in vivo.

The term IC50 denotes the concentration that inhibits the measured activity by half. Low readings indicate greater potency in that assay, high ones weaker potency in that assay. The term inhibition in vivo denotes how much of the control response was suppressed. As a reminder, the bioavailability is the share of a dose that reaches the circulation, judged against a reference dose that is usually intravenous. The Cmax is the peak of the concentration-time curve. For orientation: AUC means concentration integrated over time. A higher AUC goes with more exposure.

In data set [1], `NC(=O)N(O)CCC#Cc1ccc(OCCCCN2CCN(C(c3ccc(F)cc3)c3ccc(F)cc3)CC2)cc1` displayed an IC50 of 89 nM. The results for the microsomal CLint in data set [2], in data set [3] and in data set [4] were 13 µL/min/mg, 138 µL/min/mg and 111 µL/min/mg, respectively.
`NC(=O)N(O)CCC#Cc1ccc(OCCCN2CCC(=C3c4ccc(Cl)cc4CCc4cccnc43)CC2)cc1` registered a half-maximal inhibitory concentration (IC50) in data set [1] of 194 nM.
Same read-out and setting: the result for `NC(=O)N(O)CCC#Cc1ccc(OCCN2CCN(C(c3ccc(F)cc3)c3ccc(F)cc3)CC2)cc1` reads 48 nM.
`NC(=O)N(O)CCC#Cc1ccc(OCCCN2CCN([C@H](c3ccccc3)c3ccc(Cl)cc3)CC2)cc1`: in data set [1], the 50% inhibitory concentration (IC50) was determined as 96 nM. The microsomal CLint in [3] is 108 µL/min/mg; in [4], 99 µL/min/mg.
As for `NC(=O)N(O)CCC#Cc1ccc(OCCCN2CCN(C(c3ccc(F)cc3)c3ccc(F)cc3)CC2)cc1`, the concentration for half-maximal inhibition (IC50) in [1] was 90 nM. This counts as double-digit nanomolar.
Regarding `NC(=O)N(O)CCC#Cc1ccc(OCCN2CCC(=C3c4ccc(Cl)cc4CCc4cccnc43)CC2)cc1`, it took 185 nM to reach half-maximal inhibition in [1] (IC50). Moreover, the inhibition in vivo at 2 mg/kg in the data set with Cavia porcellus [5] came to 84%; in the data set with Cavia porcellus [7] it was 65%. Further, in [6], the bioavailability was determined as 8%. Moreover, the figures for the microsomal CLint in data set [2], in [3] and in data set [4] were 15 µL/min/mg, 101 µL/min/mg and 105 µL/min/mg, respectively. Further, the concentration in data set [8] peaked (Cmax) at 30 ng/mL. In [9], this compound yielded an area under the curve (AUC) of 83 ng·h/mL. Moreover, the concentration in data set [10] (in vivo) is 72 ng/mL; in data set [10] (setting [11]), 129 nM.
For `NC(=O)N(O)CCC#Cc1ccc(OCCN2CCN([C@H](c3ccccc3)c3ccc(Cl)cc3)CC2)cc1`, the IC50 in data set [1] was 213 nM. The inhibition in vivo at 2 mg/kg in the data set with Cavia porcellus [5] stood at 41%; with Cavia porcellus [7], 62%. The compound also yielded a bioavailability in [6] of 23%. For the same compound, the microsomal CLint in [2] amounted to 2 µL/min/mg; in data set [3] it was 48 µL/min/mg; in data set [4], 19 µL/min/mg. In addition, the Cmax in [8] was found to be 66 ng/mL. Moreover, in data set [9], the AUC was 300 ng·h/mL. Also, the concentration is 187 ng/mL in data set [10] (in vivo) and 350 nM in data set [10] (setting [11]).
For `NC(=O)N(O)CCC#Cc1ccc(OCCCCN2CCN([C@H](c3ccccc3)c3ccc(Cl)cc3)CC2)cc1`, the IC50 in data set [1] worked out at 68 nM.
On the same count and under the same terms, the figure for `NC(=O)N(O)CCC#Cc1ccc(OCCCCN2CCC(=C3c4ccc(Cl)cc4CCc4cccnc43)CC2)cc1` is 57 nM.

These data come from ChEMBL document CHEMBL1137052 (Bioorg Med Chem Lett, 2004).
